In patent US7186730B2, “Bicyclic nitrogen-containing heterocyclic derivatives for use as antibacterials” (priority 2001, dated 2007):
Counter-ions that a name gives are not always drawn. Like-named read-outs stand apart in the source and are kept apart here.

Experiment: MIC of test compounds against various organisms
Assay type: cell-based
Protocol: The MIC (μg/ml) of test compounds against various organisms was determined: S. aureus Oxford, S. aureus WCUH29, S. pneumoniae 1629, S. pneumoniae N1387, S. pneumoniae ERY 2, E. faecalis I, E. faecalis 7,H. influenzaeQ1, H. influenzae NEMC1, M. catarrhalis 1502.

[1] = versus all these organisms (10-strain panel), read-out: MIC

Row | SMILES | MIC [1] [µg/mL] | MIC [µg/mL]
1 | COc1ccc2nccc(NC(=O)C3CCN(CCc4ccc5c(c4)NC(=O)CS5)CC3)c2n1 [Example 1, 1-[2-(3-Oxo-3,4-dihydro-2H-benzo[1,4]thiazin-6-yl)-ethyl]-piperidine-4-carboxylic acid (6methoxy-[1,5]naphthyridinylaramide oxalate] | ≤ 4 | –
2 | COc1ccc2nccc(NC(=O)C3CCN(CCc4ccc5c(c4)OCO5)CC3)c2n1 [Example 2, 1-(2-Benzo[1,3]dioxol-5yl-ethyl)-piperidine4-carboxylic acid (6-methoxy-[1,5]naphthyridin-4-yl)amide, dioxalate] | ≤ 4 | –
3 | COc1ccc2nccc(NC(=O)C3CCN(CCc4ccc5c(c4)OCCO5)CC3)c2n1 [Example 3, 1-[2-(2,3-Dihydro-benzo[1,4]dioxin-6-yl)-ethyl]-piperidine-4-carboxylic acid (6-methoxy-[1,5]naphthyridin-4-yl)-amide, dioxalate] | ≤ 4 | –
4 | COc1ccc2nccc(NC(=O)C3CCN(CCc4nc5c(F)cccc5[nH]4)CC3)c2n1 [Example 4, 1-[2-(4-Fluoro-1H-benzoimidazol-2-yl)-ethyl]-piperidine-4-carboxylic acid (6-methoxy-[1,5]naphthyridin-4-yl)-amide, dioxalate] | ≤ 4 | –
5 | COc1ccc2nccc(NC(=O)C3CCN(CCc4ccc5nsnc5c4)CC3)c2n1 [Example 5, 1-(2-Benzo[1,2,5]thiadiazol-5-yl-ethyl)-piperidine-4-carboxylic acid (6-methoxy-[1,5]naphthyridin-4-yl)-amide, dioxalate] | ≤ 64 | –
6 | COc1ccc2nccc(NC(=O)C3CCN(CCc4ccc5c(c4)oc(=O)n5C)CC3)c2n1 [Example 6, 1-[2-(3-Methyl-2-oxo-2,3-dihydro-benzooxazol-6-yl)-ethyl]-piperidine-4-carboxylic acid (6-methoxy-[1,5]naphthyridin-4-yl)-amide, dioxalate] | ≤ 64 | –
7 | COc1ccc2nccc(NC(=O)C3CCN(CCc4ccc5c(c4)NC(=O)CO5)CC3)c2n1 [Example 7, 1-[2-(3-Oxo-3,4-dihydro-2H-benzo-[1,4]oxazin-6-yl)ethyl]-piperidine-4-carboxylic acid (6-methoxy-[1,5]naphthyridin-4-yl)-amide, dioxalate] | ≤ 16 | –
8 | COc1ccc2nccc(NC(=O)C3CCN(CCc4cnc5ccccc5n4)CC3)c2n1 [Example 9, 1-(2-Quinoxalin-2-yl-ethyl)piperidine-4-carboxylic acid (6-methoxy-[1,5]naphthyridin-4-yl)-amide] | ≤ 64 | –
9 | COc1ccc2nccc(NC(=O)C3CCN(CC(=O)c4ccc5c(c4)NC(=O)CS5)CC3)c2n1 [Example 11, 1-[2-Oxo-2-(3-oxo-3,4dihydro-2H-benzo[1,4]thiazin-6-yl)-ethyl]-piperidine-4-carboxylic acid (6-methoxy-[1,5]naphthyridin-4-yl)-amide oxalate] | ≤ 64 | –
10 | COc1ccc2nccc(NC(=O)C3CCN(CC(O)c4ccc5c(c4)NC(=O)CS5)CC3)c2n1 (stereo not drawn) [Example 12, R,S-1-[2-Hydroxy-2-(3-oxo-3,4-dihydro-2H-benzo[1,4]thiazin-6-yl)-ethyl]-piperidine-4-carboxylic acid (6methoxy-[1,5]naphthyridin-4-yl)-amide oxalate] | ≤ 4 | –
11 | COc1ccc2nccc(NC(=O)C3CCN(CC(=O)c4ccc5c(c4)NC(=O)CO5)CC3)c2n1.O=C(O)C(=O)O [Example 13, 1-[2-Oxo-2-(3-oxo-3,4-dihydro-2H-benzo[1,4]oxazin-6-yl)ethyl]-piperidine-4-carboxylic acid (6-methoxy-[1,5]naphthyridin-4-yl)-amide oxalate] | ≤ 4 | –
12 | COc1ccc2nccc(NC(=O)C3CCN(CC(=O)c4ccc5c(c4)OCCO5)CC3)c2n1 [Example 14, 1-[2-(2,3-Dihydro-benzo[1,4]dioxin-6-yl)-2-oxo-ethyl]-piperidine-4-carboxylic acid (6methoxy-[1,5]naphthyridin-4-yl)-amide oxalate] | ≤ 16 | –
13 | COc1ccc2nccc(NC(=O)C3CCN(CC(O)c4cnc5c(c4)NC(=O)CS5)CC3)c2n1 (stereo not drawn) [Example 15, R and S-1-[2-Hydroxy-2-(2-oxo-2,3-dihydro-1H-pyrido[2,3-b][1,4]thiazin-7-yl)-ethyl]-piperidine-4-carboxylic acid (6-methoxy-[1,5]naphthyridin-4-yl)-amide hydrochloride] | – | ≤ 4
14 | COc1ccc2nccc(NC(=O)C3CCN(CCc4cc5c(cn4)OCCO5)CC3)c2n1 [Example 16, 1-[2-(2,3-Dihydro-[1,4]dioxino[2,3-c]pyridin-7-yl)-ethyl]-piperidine-4-carboxylic acid (6-methoxy-[1,5]naphthyridin-4-yl)-amide hydrochloride] | – | ≤ 4
15 | COc1ccc2nccc(OCC3CCN(CC(O)c4ccc5c(c4)NC(=O)CS5)CC3)c2n1 (stereo not drawn) [Example 17, R,S-6-{1-Hydroxy-2-[4-(6methoxy-[1,5]naphthyridin-4-yloxymethyl)-piperidin-1-yl]-ethyl}-4H-benzo[1,4]thiazin-3-one hydrochloride] | ≤ 16 | –
16 | COc1ccc2nccc(NC(=O)C3CCN(CC(O)c4ccc5c(c4)OCCO5)CC3)c2n1 (stereo not drawn) [Example 18, R,S-1-[2-(2,3-Dihydro-benzo[1,4]dioxin-6-yl)-2-hydroxy-ethyl]-piperidine-4-carboxylic acid (6-methoxy-[1,5]naphthyridin-4-yl)-amide oxalate] | ≤ 4 | –
17 | COc1ccc2nccc(NC(=O)C3CCN(CC(O)c4ccc5c(c4)NC(=O)CO5)CC3)c2n1 (stereo not drawn) [Example 19, R,S-1-[2-Hydroxy-2-(3-oxo-3,4-dihydro-2H-benzo[1,4]oxazin-6-yl)-ethyl]-piperidine-4-carboxylic acid (6-methoxy-[1,5]naphthyridin-4-yl)-amide oxalate] | ≤ 16 | –
18 | COc1ccc2nccc(OCC3CCN(CCc4ccc5c(c4)OCCO5)CC3)c2n1 [Example 21, 8-{1-[2-(2,3-Dihydro-benzo[1,4]dioxin-6-yl)-ethyl]-piperidin-4-ylmethoxy}-2-methoxy-[1,5]naphthyridine hydrochloride] | – | ≤ 64
